{"source": "patent CN104710358A", "about": "“喹啉-4-甲酰胺衍生物及其医药用途” (Chengdu Military General Hospital of PLA, priority 2015, dated 2015)", "system": "PTSD rat conditioned fear response [束缚应激致PTSD大鼠条件恐惧反应]", "assay": "Conditioned fear response in restraint-stress-induced PTSD rats (freezing after foot shock)", "type": "in vivo", "conditions": "dose not given, Fig. 1", "data": [{"smiles": "Cc1ccc(Cl)cc1N1CCN(CCCNC(=O)c2ccnc3ccccc23)CC1", "note": "[化合物1, N-{3-[4-(5-氯-2-甲基苯基)哌嗪基]丙基}-喹啉-4-甲酰胺, 盐酸乙醚成盐]", "values": [{"measurement": "percentage of freezing time", "setting": "PTSD group, before versus after drug administration, 5 min test in shock box (CS+) without current", "value": "显著降低"}, {"measurement": "inhibition of PTSD conditioned fear response", "setting": "PTSD rats", "value": "显著抑制PTSD条件性恐惧反应"}, {"measurement": "anxiety level of PTSD rats", "setting": "PTSD rats, inferred from the conditioned fear test", "value": "降低PTSD大鼠的焦虑水平"}]}]}
